Legend:
Assay in all cases: relative viability (nuclei count vs DMSO), 5 days (fraction); higher = more cells survive
NCI-H596 = test system: NCI-H596
Method in brief: (§1)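 Cells from lung cancer lines were seeded into 1536-well plates and, one day later, dosed by pin tool. Treatments were either a single drug or a fixed dose of an anchor drug with five library-drug doses (not always all listed) in √10 steps. After 5 days, nuclei were stained in a one-step fixation (final 0.05% Triton X-100, 1% formaldehyde, 1 ug/ml Hoechst) and counted on 4× images, and relative viability is the treated-to-vehicle nuclei ratio, as the median of duplicate plates.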

PC-14 = test system: PC-14
Method in brief: as §1

NCI-H1355 = test system: NCI-H1355
Method in brief: as §1

NCI-H1792 = test system: NCI-H1792
Method in brief: as §1

NCI-H727 = test system: NCI-H727
Method in brief: as §1

RERF-LC-KJ = test system: RERF-LC-KJ
Method in brief: as §1

NCI-H520 = test system: NCI-H520
Method in brief: as §1

NCI-H460 = test system: NCI-H460
Method in brief: as §1

NCI-H2347 = test system: NCI-H2347
Method in brief: as §1

NCI-H441 = test system: NCI-H441
Method in brief: as §1

LXF-289 = test system: LXF-289
Method in brief: as §1

SK-MES-1 = test system: SK-MES-1
Method in brief: as §1

NCI-H322M = test system: NCI-H322M
Method in brief: as §1

NCI-H1755 = test system: NCI-H1755
Method in brief: as §1

NCI-H650 = test system: NCI-H650
Method in brief: as §1

NCI-H1651 = test system: NCI-H1651
Method in brief: as §1

NCI-H661 = test system: NCI-H661
Method in brief: as §1

LCLC-103H = test system: LCLC-103H
Method in brief: as §1

NCI-H1563 = test system: NCI-H1563
Method in brief: as §1

NCI-H3122 = test system: NCI-H3122
Method in brief: as §1

NCI-H1915 = test system: NCI-H1915
Method in brief: as §1

Work on `Oc1nc(-c2ccc(C(F)(F)F)cc2)nc2c1CSCC2` [XAV939] + C[C@]1(O)C[C@@H](c2nc(-c3ccc4ccc(-c5ccccc5)nc4c3)c3c(N)nccn32)C1 [Linsitinib] (partner 1 µM) yielded a relative viability (NCI-H596; first compound 0.08 µM) of 1.09, a relative viability (NCI-H596; first compound 0.253 µM) of 1.02 and a relative viability (NCI-H596; first compound 0.8 µM) of 1.03. It also gave a relative viability (NCI-H596; first compound 2.53 µM) of 0.924, a relative viability (PC-14; first compound 0.08 µM) of 0.954 and a relative viability (PC-14; first compound 0.253 µM) of 0.831. The relative viability (PC-14; first compound 0.8 µM) was 1.04, the relative viability (PC-14; first compound 2.53 µM) was 0.844 and the relative viability (NCI-H1355; first compound 0.08 µM) was 0.867. The relative viability (NCI-H1355; first compound 0.253 µM) was 0.783, the relative viability (NCI-H1355; first compound 0.8 µM) was 0.82 and the relative viability (NCI-H1355; first compound 2.53 µM) was 0.666. It also gave a relative viability (NCI-H1792; first compound 0.08 µM) of 0.672, a relative viability (NCI-H1792; first compound 0.253 µM) of 0.537 and a relative viability (NCI-H1792; first compound 0.8 µM) of 0.557. The relative viability (NCI-H1792; first compound 2.53 µM) was 0.453, the relative viability (NCI-H727; first compound 0.08 µM) was 0.315 and the relative viability (NCI-H727; first compound 0.253 µM) was 0.246. It also gave a relative viability (NCI-H727; first compound 0.8 µM) of 0.233, a relative viability (NCI-H727; first compound 2.53 µM) of 0.372 and a relative viability (RERF-LC-KJ; first compound 0.08 µM) of 0.881. It also gave a relative viability (RERF-LC-KJ; first compound 0.253 µM) of 0.765, a relative viability (RERF-LC-KJ; first compound 0.8 µM) of 0.789 and a relative viability (RERF-LC-KJ; first compound 2.53 µM) of 0.661. For the same molecule, the relative viability (NCI-H520; first compound 0.08 µM) was 0.983, the relative viability (NCI-H520; first compound 0.253 µM) was 0.974 and the relative viability (NCI-H520; first compound 0.8 µM) was 0.833. The relative viability (NCI-H520; first compound 2.53 µM) was 0.775, the relative viability (NCI-H460; first compound 0.08 µM) was 0.988 and the relative viability (NCI-H460; first compound 0.253 µM) was 0.651. The relative viability (NCI-H460; first compound 0.8 µM) was 0.959, the relative viability (NCI-H460; first compound 2.53 µM) was 0.778 and the relative viability (NCI-H2347; first compound 0.08 µM) was 1.08. The relative viability (NCI-H2347; first compound 0.253 µM) was 0.997, the relative viability (NCI-H2347; first compound 0.8 µM) was 0.931 and the relative viability (NCI-H2347; first compound 2.53 µM) was 1. It also gave a relative viability (NCI-H441; first compound 0.08 µM) of 0.675, a relative viability (NCI-H441; first compound 0.253 µM) of 0.413 and a relative viability (NCI-H441; first compound 0.8 µM) of 0.507. For the same molecule, the relative viability (NCI-H441; first compound 2.53 µM) was 0.507, the relative viability (LXF-289; first compound 0.08 µM) was 0.991 and the relative viability (LXF-289; first compound 0.253 µM) was 0.954. The relative viability (LXF-289; first compound 0.8 µM) was 0.975, the relative viability (LXF-289; first compound 2.53 µM) was 0.952 and the relative viability (SK-MES-1; first compound 0.08 µM) was 1.1. It also gave a relative viability (SK-MES-1; first compound 0.253 µM) of 0.896, a relative viability (SK-MES-1; first compound 0.8 µM) of 1.03 and a relative viability (SK-MES-1; first compound 2.53 µM) of 0.965. The relative viability (NCI-H322M; first compound 0.08 µM) was 0.966, the relative viability (NCI-H322M; first compound 0.253 µM) was 0.872 and the relative viability (NCI-H322M; first compound 0.8 µM) was 0.909. For the same molecule, the relative viability (NCI-H322M; first compound 2.53 µM) was 0.618, the relative viability (NCI-H1755; first compound 0.08 µM) was 0.975 and the relative viability (NCI-H1755; first compound 0.253 µM) was 0.865. For the same molecule, the relative viability (NCI-H1755; first compound 0.8 µM) was 0.969, the relative viability (NCI-H1755; first compound 2.53 µM) was 0.921 and the relative viability (NCI-H650; first compound 0.08 µM) was 1.13. For the same molecule, the relative viability (NCI-H650; first compound 0.253 µM) was 1.07, the relative viability (NCI-H650; first compound 0.8 µM) was 0.911 and the relative viability (NCI-H650; first compound 2.53 µM) was 0.857. The relative viability (NCI-H1651; first compound 0.08 µM) was 1.01, the relative viability (NCI-H1651; first compound 0.253 µM) was 0.799 and the relative viability (NCI-H1651; first compound 0.8 µM) was 0.915. The relative viability (NCI-H1651; first compound 2.53 µM) was 0.875, the relative viability (NCI-H661; first compound 0.08 µM) was 0.653 and the relative viability (NCI-H661; first compound 0.253 µM) was 0.568. It also gave a relative viability (NCI-H661; first compound 0.8 µM) of 0.649, a relative viability (NCI-H661; first compound 2.53 µM) of 0.35 and a relative viability (LCLC-103H; first compound 0.08 µM) of 1.05. It also gave a relative viability (LCLC-103H; first compound 0.253 µM) of 0.943, a relative viability (LCLC-103H; first compound 0.8 µM) of 1.19 and a relative viability (LCLC-103H; first compound 2.53 µM) of 1.02. The relative viability (NCI-H1563; first compound 0.08 µM) was 1.2, the relative viability (NCI-H1563; first compound 0.253 µM) was 1.01 and the relative viability (NCI-H1563; first compound 0.8 µM) was 1.07. The relative viability (NCI-H1563; first compound 2.53 µM) was 0.871, the relative viability (NCI-H3122; first compound 0.08 µM) was 1.02 and the relative viability (NCI-H3122; first compound 0.253 µM) was 0.986. For the same molecule, the relative viability (NCI-H3122; first compound 0.8 µM) was 0.951, the relative viability (NCI-H3122; first compound 2.53 µM) was 0.557 and the relative viability (NCI-H1915; first compound 0.08 µM) was 1.13. The relative viability (NCI-H1915; first compound 0.253 µM) was 1.11, the relative viability (NCI-H1915; first compound 0.8 µM) was 1.04 and the relative viability (NCI-H1915; first compound 2.53 µM) was 1.11.

From the supplement of paper PMC10307832
